Results taken from patent publication US9265771B2, “Method for treating Lyme disease” (Zoetis Services LLC, priority 2012, dated 2016).

Tests used:
B. burgdorferi [1] = assay: Study A: joint culture and microscopic pathology of joints and skin; type: in vivo, beagle dogs
Procedure: (§1) Comparisons included serology, skin culture results and joint pathology.
Ten joints from each dog were cultured for spirochetes and examined microscopically for changes. Joints included carpus, elbow, shoulder, stifle and tarsus on both the right and left, front and rear limbs. Skin sections were also examined for Lyme disease related changes (pathology). There were six joints from untreated dogs that cultured positive for spirochetes compared to none from dogs treated with Convenia. Microscopically, all untreated, infected dogs had skin sections with inflammatory and other changes as described for Lyme disease, whereas six of eight (75%) treated dogs had similar findings. With the exception of one treated dog with all joints free of pathology, all other dogs had at least two joints showing Lyme disease changes. Despite the microscopic findings, definitively attributing joint pathology to infection or amelioration of pathology as a result of Convenia therapy was equivocal.

B. burgdorferi [2] = assay: Study A: Quantitative C6 (QC6) antibody ELISA in tick-infected dogs; type: in vivo, beagle dogs; conditions: Convenia Rx Days 83 and 97
Source text: Three outer surface proteins (Osp) on B. burgdorferi are important for diagnosis and prevention, and are expressed by the organism in response to its local environment. […] OspF is another surface protein that is generally observed in late-stage disease. The C in […] refers to a 25-amino acid, C6 peptide in the sixth invariable region of an outer membrane lipoprotein (VIsE). Antibody against C6 is highly accurate as a serologic diagnosis of Lyme disease independent of a subject's (e.g., canine) vaccination status. Further, the generation of C6 antibodies implies an active infection with viable spirochetes. Serological methods for detecting B. burgdorfer/Lyme disease were conducted using the IDEXX qualitative SNAP-4Dx ELISA and the Quantitative C6 (Quant C6 or QC6) diagnostic kits, which are enzyme linked immunosorbent assays against the previously described 25-amino-acid C6 peptide. QC6 ELISA data, units/mL, are useful for guidance in initiating and evaluating response to therapy (See Levy S A, O'Connor T P, Hanscom J L, Shields P, et al. Quantitative measurement of a C6 antibody following antibiotic treatment of Borrelia burgdorferi antibody-positive, nonclinical dogs. Clin Vacc Immunol 2008; 15(1):115-119 and Littman M P, Goldstein R E, Labato M A, et al. ACVIM Small Animal Concensus Statement on Lyme Disease in Dogs: Diagnosis, Treatment and Prevention. J Vet Intern Med 2006; 20: 422-434).
Twenty-three adult female beagle dogs were used in this study; all were sero-negative for Borrelia, not vaccinated with any Borrelia spp vaccines, and acclimated at the study facility for seven days prior to any study activities. The study was conducted under National Research Council guidelines (1996. Dogs were randomized to a non-infected control (n=7 dogs) group, or infected groups (n=8 dogs/region) using ticks from two regions of the USA, Region A (New England (NE), i.e., Rhode Island) and Region B (Midwest (MW), i.e., Wisconsin). Dogs were infected on Day 0 with up to 30 Ixodes scapularis ticks per dog. Tick attachment was monitored daily and after nine days, remaining ticks were harvested and all dogs were treated with two topical applications of an approved acaricide observing a 30-day interval between applications. Dogs were monitored 21-days post-challenge for pyrexia, and the entire post-challenge period for clinical signs of Lyme disease (lameness, ataxia, anorexia, lymphadenopathy and depression).
Blood was collected from each dog weekly to Day 28, then every two-weeks for the remainder of the study (166 days). Serum antibodies to Borrelia were assayed using SNAP-4Dx and QC6 ELISA. Two skin punch biopsies were collected near tick attachment sites from each dog every 28 days post-challenge for bacterial culture.
as §1

## CO/N=C(\C(=O)N[C@@H]1C(=O)N2C(C(=O)[O-])=C([C@@H]3CCCO3)CS[C@H]12)c1csc(N)n1.[Na+] [Convenia, (6R,7R)-7-[[(2Z)-(2-amino-4-thiazolyl)(methoxyimino)acetyl]-amino]-8-oxo-3-[(2S)-tetrahydro-2-furanyl]-5-thia-1-azabicyclo[4.2.0]oct-2-ene-2-carboxylic acid, monosodium salt]
B. burgdorferi [1]; dog, in vivo
  Number of treated dogs with all joints free of pathology: one
B. burgdorferi [1]; of eight treated infected dogs
  Number of treated dogs with skin sections with inflammatory and other changes as described for Lyme disease: six
  Treated dogs with skin sections with inflammatory and other changes as described for Lyme disease: 75%
B. burgdorferi [1]; ten joints per dog, six in untreated dogs
  Joints that cultured positive for spirochetes: none
B. burgdorferi [1]; untreated dogs: moderate to marked
  Grade of inflammatory changes in joints: none to mild
B. burgdorferi [2]; Group 4 Control (no ticks), Day 0
  Mean QC6 Antibody Levels: 0 U/mL
B. burgdorferi [2]; Group 4 Control (no ticks), Day 7
  Mean QC6 Antibody Levels: 0 U/mL
B. burgdorferi [2]; Group 4 Control (no ticks), Day 20
  Mean QC6 Antibody Levels: 0 U/mL
B. burgdorferi [2]; Group 4 Control (no ticks), Day 27
  Mean QC6 Antibody Levels: 0 U/mL
B. burgdorferi [2]; Group 4 Control (no ticks), Day 41
  Mean QC6 Antibody Levels: 0 U/mL
B. burgdorferi [2]; Group 4 Control (no ticks), Day 54
  Mean QC6 Antibody Levels: 0 U/mL
B. burgdorferi [2]; Group 4 Control (no ticks), Day 69
  Mean QC6 Antibody Levels: 0 U/mL
B. burgdorferi [2]; Group 4 Control (no ticks), Day 83
  Mean QC6 Antibody Levels: 0 U/mL
B. burgdorferi [2]; Group 4 Control (no ticks), Day 97
  Mean QC6 Antibody Levels: 0 U/mL
B. burgdorferi [2]; Group 4 Control (no ticks), Day 111
  Mean QC6 Antibody Levels: 0 U/mL
B. burgdorferi [2]; Group 4 Control (no ticks), Day 125
  Mean QC6 Antibody Levels: 0 U/mL
B. burgdorferi [2]; Group 4 Control (no ticks), Day 138
  Mean QC6 Antibody Levels: 0 U/mL
B. burgdorferi [2]; Group 4 Control (no ticks), Day 153
  Mean QC6 Antibody Levels: 0 U/mL
B. burgdorferi [2]; Group 4 Control (no ticks), Day 166
  Mean QC6 Antibody Levels: 0 U/mL
B. burgdorferi [2]; Group 5 NE Ticks, Day 0 (infestation)
  Mean QC6 Antibody Levels: 0 U/mL
B. burgdorferi [2]; Group 5 NE Ticks, Day 7 (pre-treatment)
  Mean QC6 Antibody Levels: 0 U/mL
B. burgdorferi [2]; Group 5 NE Ticks, Day 20 (pre-treatment)
  Mean QC6 Antibody Levels: 148.5 U/mL
B. burgdorferi [2]; Group 5 NE Ticks, Day 27 (pre-treatment)
  Mean QC6 Antibody Levels: 148.75 U/mL
B. burgdorferi [2]; Group 5 NE Ticks, Day 41 (pre-treatment)
  Mean QC6 Antibody Levels: 239.25 U/mL
B. burgdorferi [2]; Group 5 NE Ticks, Day 54 (pre-treatment)
  Mean QC6 Antibody Levels: 209.5 U/mL
B. burgdorferi [2]; Group 5 NE Ticks, Day 69 (pre-treatment)
  Mean QC6 Antibody Levels: 270.75 U/mL
B. burgdorferi [2]; Group 5 NE Ticks, Day 83 (first dose)
  Mean QC6 Antibody Levels: 122 U/mL
B. burgdorferi [2]; Group 5 NE Ticks, Day 97 (second dose)
  Mean QC6 Antibody Levels: 99.5 U/mL
B. burgdorferi [2]; Group 5 NE Ticks, Day 111
  Mean QC6 Antibody Levels: 48.25 U/mL
B. burgdorferi [2]; Group 5 NE Ticks, Day 125
  Mean QC6 Antibody Levels: 20.5 U/mL
B. burgdorferi [2]; Group 5 NE Ticks, Day 138
  Mean QC6 Antibody Levels: 7.75 U/mL
B. burgdorferi [2]; Group 5 NE Ticks, Day 153
  Mean QC6 Antibody Levels: 4.25 U/mL
B. burgdorferi [2]; Group 5 NE Ticks, Day 166
  Mean QC6 Antibody Levels: 3 U/mL
B. burgdorferi [2]; Group 6 MW Ticks, Day 0 (infestation)
  Mean QC6 Antibody Levels: 0 U/mL
B. burgdorferi [2]; Group 6 MW Ticks, Day 7 (pre-treatment)
  Mean QC6 Antibody Levels: 0 U/mL
B. burgdorferi [2]; Group 6 MW Ticks, Day 20 (pre-treatment)
  Mean QC6 Antibody Levels: 66.5 U/mL
B. burgdorferi [2]; Group 6 MW Ticks, Day 27 (pre-treatment)
  Mean QC6 Antibody Levels: 155 U/mL
B. burgdorferi [2]; Group 6 MW Ticks, Day 41 (pre-treatment)
  Mean QC6 Antibody Levels: 147.25 U/mL
B. burgdorferi [2]; Group 6 MW Ticks, Day 54 (pre-treatment)
  Mean QC6 Antibody Levels: 149.25 U/mL
B. burgdorferi [2]; Group 6 MW Ticks, Day 69 (pre-treatment)
  Mean QC6 Antibody Levels: 110.75 U/mL
B. burgdorferi [2]; Group 6 MW Ticks, Day 83 (first dose)
  Mean QC6 Antibody Levels: 93.75 U/mL
B. burgdorferi [2]; Group 6 MW Ticks, Day 97 (second dose)
  Mean QC6 Antibody Levels: 74.25 U/mL
B. burgdorferi [2]; Group 6 MW Ticks, Day 111
  Mean QC6 Antibody Levels: 51.5 U/mL
B. burgdorferi [2]; Group 6 MW Ticks, Day 125
  Mean QC6 Antibody Levels: 29 U/mL
B. burgdorferi [2]; Group 6 MW Ticks, Day 138
  Mean QC6 Antibody Levels: 22 U/mL
B. burgdorferi [2]; Group 6 MW Ticks, Day 153
  Mean QC6 Antibody Levels: 8.25 U/mL
B. burgdorferi [2]; Group 6 MW Ticks, Day 166
  Mean QC6 Antibody Levels: 6.5 U/mL
